Measured values reported in article PMC6337261, “Short Peptides with Uncleavable Peptide Bond Mimetics as Photoactivatable Caspase-3 Inhibitors” (Molecules, 2019).

Key:
Format in all cases: biochemical
[1] = test system: caspase-3; test: Fluorogenic substrate (Ac-DEVD-AMC) cleavage assay; settings: 10 μM compound, 2 nM caspase-3, 50 μM Ac-DEVD-AMC, HEPES pH 7.4 with 10 mM DTT, n = 2
Procedure: To check whether our probes function as inhibitors, competitive ABPP [28] was performed. Recombinant caspase-3 was incubated with probes 9a–10c, 11a and 12a with or without irradiation at 365 nm, followed by labeling of residually active caspase-3 with the fluorescent, caspase-directed activity-based probe (ABP) SV149, a tetramethylrhodamine derivative of KMB-01 [29]. Caspase activity itself was not affected by UV irradiation, as shown by bands of equal intensity with and without UV light (Figure 2A). […] To confirm inhibition, we also performed substrate cleavage assays using the fluorogenic aminomethyl coumarin substrate Ac-DEVD-AMC. […] Inhibition of active caspases could also be achieved in an apoptotic cell lysate (Figure 2D).
Purified caspase-3 (2 nM) was pre-activated by incubating in caspase reaction buffer (20 mm HEPES pH 7.4, 100 mM NaCl, 1 mM EDTA, 10% sucrose (w/v), 0.1% CHAPS (w/v), 10 mM DTT) for 15 min at 37 °C. Inhibitors 9a, 10a, and DMSO (control) were incubated with the caspase-3 at 10 μM final concentration. One set was irradiated with a handheld UV lamp at 365 nm for 30 min at room temperature whereas the control set was not irradiated. After 30 min, 99 μL of the sample was added to 1 μL of Ac-DEVD-AMC fluorogenic substrate (5 mM in dmso; 50 μM final concentration) in a black 96 well plate. The fluorescence intensity was read using an iD3 SpectraMax platereader (Molecular Devices; excitation wavelength: 340 nm; emission wavelength: 475 nm). The experiment was performed in duplicate. Activity was determined as the slope from the linear part of the progress curve by using GraphPad Prism.
Figure 2 Inhibition of caspase-3. (A) Competitive activity-based protein profiling (ABPP) experiments using ψ(CH2NH) or triazolo peptide derivatives 9–12 with or without irradiation. Compounds 9a–12a were used at 10 μM final concentration, 9b, 9c, 10b and 10c at 100 μM. Inh = caspase inhibitor biotin-DEVD-AOMK, used at 100 nM concentration. (B) Representative progress curves of fluorescence produced by Ac-DEVD-AMC (50 μM) cleavage by caspase-3, irradiated with or without 10 μM of the indicated compounds. (C) Bar graph of residual caspase-3 activity of replicate experiments (n = 2) of those in (B). (D) Inhibition of executioner’s caspase-3 and -7 in lysates of HEK293 cells, treated with cytochrome c/dATP to induce apoptosis.

[2] = test system: caspase-3; test: Competitive ABPP with UV pre-activation of the probes; settings: compound irradiated at 365 nm for 30 min, light source removed, then added to caspase-3 for 30 min; fluorescent ABP read-out
Procedure: Compounds were irradiated with UV light of 365 nm for 30 min and after removal of the light source added to caspase-3. Residual caspase activity was measured by using a fluorescent caspase ABP as in our previous experiments above.
Caspase-3, produced in E. coli and purified as described before, was reacted in PBS with 1 mM DTT. Samples were combined with the indicated probe and irradiated with a handheld UV lamp at 365 nm for 30 min at room temperature. For competition experiments with ‘pre-activation,’ the indicated probes were irradiated for 30 min prior to addition to caspase-3, and incubated for an additional 30 min. Next, ABP 13 was added (final concentration 1 μM) to label residual caspase-3 activity. The samples were incubated for 30 min at room temperature, after which 1/3rd volume of 4× Laemmli buffer was added. Samples were heated at 95 °C for 2 min and resolved by 15% SDS-PAGE. Gels were scanned using a Typhoon Trio+ fluorescent scanner with excitation at 532 nm and an emission filter of 580 nm. Gel images were processed with ImageJ (background subtraction with rolling ball radius of 50 pixels and automated contrast adjustment).
(§1) Figure 3 Non-covalent inhibition of caspase-3 by compounds 9 and 10. (A) Fluorescent labeling of caspase-3 by ψ(CH2NH) peptides 9–10 and triazolo peptides 11–12. […] (B) Deconvoluted ESI-MS of caspase-3. (C) Deconvoluted ESI-MS of caspase-3 after incubation with covalent activity-based probe (ABP) 13. Note that the active site, located on the large subunit, is modified. (D) Deconvoluted ESI-MS of caspase-3 after irradiation in the presence of benzophenone ψ(CH2NH) 10a, not resulting in covalent modification. […] (F) Structures of ψ(CH2NH) peptides 14 and 15 without photocrosslinker. (G) UV irradiation of ψ(CH2NH) peptides 14 and 15 in the presence of benzophenone leads to inhibition of caspase-3, as monitored by competitive ABPP. […] Ac-DEVD-aldehyde (100 nM) was used as a control compound, whereas 9a and 10a (10 μM) were irradiated for 10 min and reacted with sodium bisulfite for an additional 20 min before 30 min incubation with caspase-3 and read-out with a fluorescent caspase ABP.

[3] = test system: caspase-3; test: Competitive ABPP with bisulfite aldehyde quenching; settings: 10 μM, irradiated 10 min, reacted with 10 mM NaHSO3 for 20 min, then 30 min with caspase-3, fluorescent ABP read-out
Excerpt: The presence of a ψ(CH2NH) peptide with benzophenone or UV irradiation alone was not sufficient for inhibition, but all needed to be present to block the caspase-3 active site (Figure 3G,H). We hypothesized that the active species is a peptide aldehyde, formed by oxidation of the ψ(CH2NH) moiety (see also discussion in Section 3). To support this hypothesis, we performed an experiment in which this aldehyde was trapped by sodium bisulfite, forming a sodium bisulfite adduct.
Compounds were incubated with or without irradiation (10 min) in PBS with or without 10 mM NaHSO3 and incubated for another 20 min before addition to caspase-3. After 30 min, ABP 13 was added (final concentration 1 μM) to label residual caspase activity. The samples were incubated for 30 min at room temperature, after which 1/3rd volume of 4× Laemmli buffer was added. Samples were processed in the same way as under Section 4.4.1.
as §1

Hexynoyl-Asp-Glu-Val-Aspψ(CH2NH)-Ala-Bpa-NH2 [10a]
Inhibition of Ac-DEVD-AMC cleavage by caspase-3 ([1]; irradiated at 365 nm for 30 min at room temperature): complete blockage of substrate processing | Inhibition of Ac-DEVD-AMC cleavage by caspase-3 ([1]; not irradiated): little to no inhibition | Inhibition of caspase-3 after UV pre-activation of compound [2]: still inhibited | Inhibition of caspase-3 by irradiated sample exposed to sodium bisulfite [3]: lose their inhibitory capacity
